Data taken from patent US8889676B2, “3-ureidoisoquinolin-8-yl derivatives” (Actelion Pharmaceuticals Ltd., priority 2011, dated 2014).
Converted amounts (≈) assume the structure as drawn.

System: S. pneumoniae ATCC 49619
Assay: Minimal inhibitory concentration (MIC) by broth microdilution (CLSI M7-A7)
Type: cell-based, Streptococcus pneumoniae
Details: Streptococcus pneumoniae, ATCC49619; cation-adjusted Mueller Hinton Broth supplemented with 3% (v/v) lysed horse blood; microdilution method
Method in brief: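 Broth microdilution per CLSI M7-A7 in cation-adjusted Mueller-Hinton broth with 3% (v/v) lysed horse blood for S. pneumoniae. MIC in mg/l.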

| MIC | SMILES |
| --- | --- |
| 8 µg/mL (≈ 17.7 µM) | CCNC(=O)Nc1cc2c(-c3ccnc(C)c3)ccc(CN(C)C(=O)OCCOC)c2cn1 [Example 181, [3-(3-ethyl-ureido)-5-(2-methyl-pyridin-4-yl)-isoquinolin-8-ylmethyl]-methyl-carbamic acid 2-methoxy-ethyl ester] |
| 2 µg/mL (≈ 4.58 µM) | CCNC(=O)Nc1cc2c(-c3ccncc3)ccc(CNC(=O)OCCC(N)=O)c2cn1 [Example 182, [3-(3-ethyl-ureido)-5-pyridin-4-yl-isoquinolin-8-ylmethyl]-carbamic acid 2-carbamoyl-ethyl ester] |
| 1 µg/mL (≈ 2.95 µM) | CCNC(=O)Nc1cc2cccc(CNC(=O)c3cnn[nH]3)c2cn1 [Example 183, 3H-[1,2,3]triazole-4-carboxylic acid [3-(3-ethyl-ureido)-isoquinolin-8-ylmethyl]-amide] |
| 1 µg/mL | CCNC(=O)Nc1cc2c(-c3ccncc3F)ccc(CNC(=O)OC)c2cn1.Cl [Example 184, [3-(3-ethyl-ureido)-5-(3-fluoro-pyridin-4-yl)-isoquinolin-8-ylmethyl]-carbamic acid methyl ester hydrochloride] |
| 2 µg/mL | CCNC(=O)Nc1cc2c(-c3ccncc3C)ccc(CNC(=O)OC)c2cn1.Cl [Example 185, [3-(3-ethyl-ureido)-5-(3-methyl-pyridin-4-yl)-isoquinolin-8-ylmethyl]-carbamic acid methyl ester hydrochloride] |
| 2 µg/mL | CCNC(=O)Nc1cc2c(-c3cc(F)ncc3C)ccc(CNC(=O)OC)c2cn1.Cl [Example 186, [3-(3-ethyl-ureido)-5-(2-fluoro-5-methyl-pyridin-4-yl)-isoquinolin-8-ylmethyl]-carbamic acid methyl ester hydrochloride] |
| 4 µg/mL | CCNC(=O)Nc1cc2c(-c3ccnc(F)c3C)ccc(CNC(=O)OC)c2cn1.Cl [Example 187, [3-(3-ethyl-ureido)-5-(2-fluoro-3-methyl-pyridin-4-yl)-isoquinolin-8-ylmethyl]-carbamic acid methyl ester hydrochloride] |
| 2 µg/mL | CCNC(=O)Nc1cc2c(-c3cc(C)ncc3F)ccc(CNC(=O)OC)c2cn1.Cl [Example 188, [3-(3-ethyl-ureido)-5-(5-fluoro-2-methyl-pyridin-4-yl)-isoquinolin-8-ylmethyl]-carbamic acid methyl ester hydrochloride] |
| 8 µg/mL | CCNC(=O)Nc1cc2c(-c3ccnc(C)c3C)ccc(CNC(=O)OC)c2cn1.Cl [Example 189, [5-(2,3-dimethyl-pyridin-4-yl)-3-(3-ethyl-ureido)-isoquinolin-8-ylmethyl]-carbamic acid methyl ester hydrochloride] |
| 4 µg/mL | CCNC(=O)Nc1cc2c(-c3cc(C)ncc3C)ccc(CNC(=O)OC)c2cn1.Cl [Example 190, [5-(2,5-dimethyl-pyridin-4-yl)-3-(3-ethyl-ureido)-isoquinolin-8-ylmethyl]-carbamic acid methyl ester hydrochloride] |
| 2 µg/mL | CCNC(=O)Nc1cc2c(-c3cc(F)ncc3F)ccc(CNC(=O)OC)c2cn1.Cl [Example 191, [5-(2,5-difluoro-pyridin-4-yl)-3-(3-ethyl-ureido)-isoquinolin-8-ylmethyl]-carbamic acid methyl ester hydrochloride] |
| 2 µg/mL (≈ 4.57 µM) | CCNC(=O)Nc1cc2c(-c3ccnc(CCCO)c3)ccc(CNC(=O)OC)c2cn1 [Example 192, {3-(3-ethyl-ureido)-5-[2-(3-hydroxy-propyl)-pyridin-4-yl]-isoquinolin-8-ylmethyl}-carbamic acid methyl ester] |
| 8 µg/mL (≈ 17.8 µM) | CCNC(=O)Nc1cc2c(-c3ccnc(CC(=O)NC)c3)ccc(CNC(=O)OC)c2cn1 [Example 193, [3-(3-ethyl-ureido)-5-(2-(methylcarbamoyl-methyl)-pyridin-4-yl)-isoquinolin-8-ylmethyl]-carbamic acid methyl ester] |
| 4 µg/mL (≈ 8.61 µM) | CCNC(=O)Nc1cc2c(-c3ccnc(CC(=O)N(C)C)c3)ccc(CNC(=O)OC)c2cn1 [Example 194, [5-[2-(dimethylcarbamoyl-methyl)-pyridin-4-yl]-3-(3-ethyl-ureido)-isoquinolin-8-ylmethyl]-carbamic acid methyl ester] |
| 4 µg/mL (≈ 8.61 µM) | CCNC(=O)Nc1cc2c(-c3ccnc(CCC(=O)NC)c3)ccc(CNC(=O)OC)c2cn1 [Example 195, {3-(3-ethyl-ureido)-5-[2-(2-methylcarbamoyl-ethyl)-pyridin-4-yl]-isoquinolin-8-ylmethyl}-carbamic acid methyl ester] |
| 4 µg/mL (≈ 8.36 µM) | CCNC(=O)Nc1cc2c(-c3ccnc(CCC(=O)N(C)C)c3)ccc(CNC(=O)OC)c2cn1 [Example 196, [5-[2-(2-dimethylcarbamoyl-ethyl)-pyridin-4-yl]-3-(3-ethyl-ureido)-isoquinolin-8-ylmethyl]-carbamic acid methyl ester] |
| 2 µg/mL (≈ 4.95 µM) | CCNC(=O)Nc1cc2c(-c3ccnc(C#N)c3)ccc(CNC(=O)OC)c2cn1 [Example 197, [5-(2-cyano-pyridin-4-yl)-3-(3-ethyl-ureido)-isoquinolin-8-ylmethyl]-carbamic acid methyl ester] |
